Test results as given in ChEMBL document CHEMBL2331460, “Glycosidic carbonic anhydrase IX inhibitors: a sweet approach against cancer” (Bioorg Med Chem, 2013).

Assays:
[1] = organism: Homo sapiens; assay: Selectivity ratio of Ki for human carbonic anhydrase 2 to Ki for human carbonic anhydrase 9
[2] = target: Carbonic anhydrase 9 (Homo sapiens, UniProt Q16790); assay: Inhibition of human carbonic anhydrase 9 preincubated for 15 mins by CO2 hydration stopped-flow assay
[3] = target: Carbonic anhydrase 2 (Homo sapiens, UniProt P00918); assay: Inhibition of human carbonic anhydrase 2 preincubated for 15 mins by CO2 hydration stopped-flow assay
[4] = organism: Homo sapiens; assay: Selectivity ratio of Ki for human carbonic anhydrase 1 to Ki for human carbonic anhydrase 9

| Ki [3] [nM] | SMILES | Ratio Ki [1] | Ki [2] [nM] | Ratio Ki [4] |
| --- | --- | --- | --- | --- |
| – | C[C@@H]1O[C@@H](NS(N)(=O)=O)[C@@H](O)[C@H](O)[C@H]1O | 7 | 900 | – |
| 11.3 | NS(=O)(=O)OC[C@H]1O[C@H](OC[C@H]2[C@H](O)[C@@H](O)[C@H](O)O[C@@H]2CO)[C@H](O)[C@@H](O)[C@@H]1O | – | – | – |
| – | CC(=O)OC[C@H]1O[C@@H](NS(N)(=O)=O)[C@@H](OC(C)=O)[C@@H](OC(C)=O)[C@@H]1OC(C)=O | < 17 | – | 480 |
| – | CC(=O)OC[C@H]1O[C@@H](NS(N)(=O)=O)[C@H](OC(C)=O)[C@@H](OC(C)=O)[C@H]1OC(C)=O | < 17 | 5 | 480 |
| – | CC(=O)OC[C@H]1O[C@@H](NS(N)(=O)=O)[C@H](OC(C)=O)[C@@H](OC(C)=O)[C@@H]1OC(C)=O | < 17 | 5 | 480 |
| – | CC(=O)OC[C@H]1O[C@H](NS(N)(=O)=O)C=C[C@@H]1OC(C)=O | – | 9 | – |
